Reference: US20080311126A1, “Antisense Oligonucleotides Directed to Ribonucleotide Reducatase R2 and Uses Thereof in Combination Therapies for the Treatment of Cancer” (Genesense Technologies, Inc, priority 2004, published 2008)
Oligonucleotides are written 5' to 3', each unit as a sugar letter and its base; * is a phosphorothioate linkage, no mark a phosphodiester; rarer units and linkages stand in square brackets, end groups in braces. Plain capitals give the bases only. d = 2'-deoxy (DNA)

Assays:
Type in all cases: cell-based, human
[1] = test system: MDA-MB-231 breast cell adenocarcinoma; assay: Relative colony forming efficiency (Example 17, Table 13); settings: averages of 2-8 determinations
In short: (§1)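 Read-out: methylene blue-stained colonies scored and expressed as percent of control, given as % inhibition of colony forming ability. Cells had been exposed for four hours to phosphorothioate deoxyribonucleotides, usually 0.2 μM, complexed with 2.5 μg DOTMA/DOPE.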

[2] = test system: T-47D breast ductal carcinoma; assay: as above; settings: averages of 2-8 determinations
In short: as §1

[3] = test system: T24 bladder cell carcinoma; assay: as above; settings: averages of 2-8 determinations
In short: as §1

[4] = test system: HepG2 hepatocellular carcinoma; assay: as above; settings: averages of 2-8 determinations
In short: as §1

[5] = test system: PC-3 prostrate cell adenocarcinoma; assay: as above; settings: averages of 2-8 determinations
In short: as §1

[6] = test system: MDA PaCa-2 pancreatic cell carcinoma; assay: as above; settings: MIA PaCa-2 pancreatic cell carcinoma; averages of 2-8 determinations
In short: as §1

A549 lung cell carcinoma = assay: as above; settings: averages of 2-8 determinations
In short: as §1

[7] = test system: HCT116 colon cell carcinoma; assay: as above; settings: averages of 2-8 determinations
In short: as §1

Hela S3 cells = assay: Relative colony forming efficiency, lipofectin +/- oligonucleotide 4 hours; settings: Hela S3 cervix carcinoma cells; averages of 2-8 determinations
In short: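 HeLa S3 cells were exposed to phosphorothioate antisense oligonucleotide (0.2 μM unless stated) with lipofectin for 4 h, then grown 7–10 days in 10% FBS medium. Methylene blue-stained colonies were counted and expressed as percent survival relative to lipofectin-only controls.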

[8] = test system: H596 lung adenosquamous carcinoma cells; assay: Relative colony forming efficiency (Example 17, Table 13); settings: averages of 2-8 determinations
In short: as §1

GCACGGGCGACC (antisense dG*dC*dA*dC*dG*dG*dG*dC*dG*dA*dC*dC) [AS-II-127-12]
Reduced relative colony forming efficiency, MDA-MB-231 (% inhibition of colony forming ability) [1]: 38.46%
Reduced relative colony forming efficiency, T-47D (% inhibition of colony forming ability) [2]: 37.54%
Reduced relative colony forming efficiency, T24 (% inhibition of colony forming ability) [3]: 50.63%
Reduced relative colony forming efficiency, HepG2 (% inhibition of colony forming ability) [4]: 71.75%
Reduced relative colony forming efficiency, PC-3 (% inhibition of colony forming ability) [5]: 79.56%
Reduced relative colony forming efficiency, MIA PaCa-2 (% inhibition of colony forming ability) [6]: 53.34%
Reduced relative colony forming efficiency, A549 (% inhibition of colony forming ability) (A549 lung cell carcinoma): 69.33%
Reduced relative colony forming efficiency, HCT116 (% inhibition of colony forming ability) [7]: 54.34%
Reduced relative colony forming efficiency, Hela S3 (% inhibition of colony forming ability) (Hela S3 cells): 86.45%

GACACAAGGCATCGTTTCAA (antisense dG*dA*dC*dA*dC*dA*dA*dG*dG*dC*dA*dT*dC*dG*dT*dT*dT*dC*dA*dA) [AS-II-784-20]
Reduced relative colony forming efficiency, MDA-MB-231 (% inhibition of colony forming ability) [1]: 33.92%
Reduced relative colony forming efficiency, T-47D (% inhibition of colony forming ability) [2]: 85.39%
Reduced relative colony forming efficiency, T24 (% inhibition of colony forming ability) [3]: 87.23%
Reduced relative colony forming efficiency, HepG2 (% inhibition of colony forming ability) [4]: 80.89%
Reduced relative colony forming efficiency, PC-3 (% inhibition of colony forming ability) [5]: 88.99%
Reduced relative colony forming efficiency, MIA PaCa-2 (% inhibition of colony forming ability) [6]: 62.04%
Reduced relative colony forming efficiency, A549 (% inhibition of colony forming ability) (A549 lung cell carcinoma): 83.8%
Reduced relative colony forming efficiency, HCT116 (% inhibition of colony forming ability) [7]: 78.09%
Reduced relative colony forming efficiency, Hela S3 (% inhibition of colony forming ability) (Hela S3 cells): 81.48%

GCTATTATCGCCGCCGTGAG (antisense dG*dC*dT*dA*dT*dT*dA*dT*dC*dG*dC*dC*dG*dC*dC*dG*dT*dG*dA*dG) [AS-II-1773-20]
Reduced relative colony forming efficiency, MDA-MB-231 (% inhibition of colony forming ability) [1]: 44.76%
Reduced relative colony forming efficiency, T-47D (% inhibition of colony forming ability) [2]: 84.38%
Reduced relative colony forming efficiency, T24 (% inhibition of colony forming ability) [3]: 15.19%
Reduced relative colony forming efficiency, HepG2 (% inhibition of colony forming ability) [4]: 58.19%
Reduced relative colony forming efficiency, PC-3 (% inhibition of colony forming ability) [5]: 70.04%
Reduced relative colony forming efficiency, MIA PaCa-2 (% inhibition of colony forming ability) [6]: 45.68%
Reduced relative colony forming efficiency, A549 (% inhibition of colony forming ability) (A549 lung cell carcinoma): 70.11%
Reduced relative colony forming efficiency, HCT116 (% inhibition of colony forming ability) [7]: 75.58%
Reduced relative colony forming efficiency, 11596 (% inhibition of colony forming ability) [8]: 66.04%
Reduced relative colony forming efficiency, Hela S3 (% inhibition of colony forming ability) (Hela S3 cells): 80.27%

GCGAGCGGGACACGGAGGGA (antisense dG*dC*dG*dA*dG*dC*dG*dG*dG*dA*dC*dA*dC*dG*dG*dA*dG*dG*dG*dA) [AS-II-201-20]
Reduced relative colony forming efficiency, MDA-MB-231 (% inhibition of colony forming ability) [1]: 25.17%
Reduced relative colony forming efficiency, T-47D (% inhibition of colony forming ability) [2]: 98.53%
Reduced relative colony forming efficiency, T24 (% inhibition of colony forming ability) [3]: 96.2%
Reduced relative colony forming efficiency, HepG2 (% inhibition of colony forming ability) [4]: 59.32%
Reduced relative colony forming efficiency, PC-3 (% inhibition of colony forming ability) [5]: 65.08%
Reduced relative colony forming efficiency, A549 (% inhibition of colony forming ability) (A549 lung cell carcinoma): 90.55%
Reduced relative colony forming efficiency, HCT116 (% inhibition of colony forming ability) [7]: 45.56%
Reduced relative colony forming efficiency, 11596 (% inhibition of colony forming ability) [8]: 49.6%
Reduced relative colony forming efficiency, Hela S3 (% inhibition of colony forming ability) (Hela S3 cells): 90.87%

CGGCGGCGTGTT (antisense dC*dG*dG*dC*dG*dG*dC*dG*dT*dG*dT*dT) [AS-II-288-12]
Reduced relative colony forming efficiency, MDA-MB-231 (% inhibition of colony forming ability) [1]: 52.1%
Reduced relative colony forming efficiency, T24 (% inhibition of colony forming ability) [3]: 30.38%
Reduced relative colony forming efficiency, HepG2 (% inhibition of colony forming ability) [4]: 65.89%
Reduced relative colony forming efficiency, PC-3 (% inhibition of colony forming ability) [5]: 74.01%
Reduced relative colony forming efficiency, MIA PaCa-2 (% inhibition of colony forming ability) [6]: 30.09%
Reduced relative colony forming efficiency, A549 (% inhibition of colony forming ability) (A549 lung cell carcinoma): 70.49%
Reduced relative colony forming efficiency, HCT116 (% inhibition of colony forming ability) [7]: 67.57%
Reduced relative colony forming efficiency, 11596 (% inhibition of colony forming ability) [8]: 12.67%
Reduced relative colony forming efficiency, Hela S3 (% inhibition of colony forming ability) (Hela S3 cells): 57.63%

TGCCTCCGACCCTTCCCA (antisense dT*dG*dC*dC*dT*dC*dC*dG*dA*dC*dC*dC*dT*dT*dC*dC*dC*dA) [AS-II-16-18]
Reduced relative colony forming efficiency, MDA-MB-231 (% inhibition of colony forming ability) [1]: 62.59%
Reduced relative colony forming efficiency, T-47D (% inhibition of colony forming ability) [2]: 7.13%
Reduced relative colony forming efficiency, T24 (% inhibition of colony forming ability) [3]: 25.74%
Reduced relative colony forming efficiency, HepG2 (% inhibition of colony forming ability) [4]: 75.89%
Reduced relative colony forming efficiency, PC-3 (% inhibition of colony forming ability) [5]: 89.48%
Reduced relative colony forming efficiency, A549 (% inhibition of colony forming ability) (A549 lung cell carcinoma): 81.1%
Reduced relative colony forming efficiency, HCT116 (% inhibition of colony forming ability) [7]: 78.57%
Reduced relative colony forming efficiency, 11596 (% inhibition of colony forming ability) [8]: 34.5%
Reduced relative colony forming efficiency, Hela S3 (% inhibition of colony forming ability) (Hela S3 cells): 68.7%

ATCGCCGCCGTG (antisense dA*dT*dC*dG*dC*dC*dG*dC*dC*dG*dT*dG) [AS-II-1775-12]
Reduced relative colony forming efficiency, MDA-MB-231 (% inhibition of colony forming ability) [1]: 48.6%
Reduced relative colony forming efficiency, T24 (% inhibition of colony forming ability) [3]: 85.54%
Reduced relative colony forming efficiency, HepG2 (% inhibition of colony forming ability) [4]: 43.97%
Reduced relative colony forming efficiency, PC-3 (% inhibition of colony forming ability) [5]: 78.17%
Reduced relative colony forming efficiency, MIA PaCa-2 (% inhibition of colony forming ability) [6]: 27.78%
Reduced relative colony forming efficiency, A549 (% inhibition of colony forming ability) (A549 lung cell carcinoma): 63.55%
Reduced relative colony forming efficiency, 11596 (% inhibition of colony forming ability) [8]: 18.6%
Reduced relative colony forming efficiency, Hela S3 (% inhibition of colony forming ability) (Hela S3 cells): 68.61%

G*CC*TCCG*ACC*CTTC*CC*ATT*G (antisense dG*dCdC*dTdCdCdG*dAdCdC*dCdTdTdC*dCdC*dAdTdT*dG) [AS-II-13-20]
Reduced relative colony forming efficiency, MDA-MB-231 (% inhibition of colony forming ability) [1]: 45.45%
Reduced relative colony forming efficiency, T-47D (% inhibition of colony forming ability) [2]: 15.33%
Reduced relative colony forming efficiency, T24 (% inhibition of colony forming ability) [3]: 18.99%
Reduced relative colony forming efficiency, HepG2 (% inhibition of colony forming ability) [4]: 24.11%
Reduced relative colony forming efficiency, PC-3 (% inhibition of colony forming ability) [5]: 52.38%
Reduced relative colony forming efficiency, A549 (% inhibition of colony forming ability) (A549 lung cell carcinoma): 32.3%
Reduced relative colony forming efficiency, HCT116 (% inhibition of colony forming ability) [7]: 6.95%
Reduced relative colony forming efficiency, 11596 (% inhibition of colony forming ability) [8]: 19.63%
Reduced relative colony forming efficiency, Hela S3 (% inhibition of colony forming ability) (Hela S3 cells): 19.85%

AAAACCTTGCTAAAACCCAG (antisense dA*dA*dA*dA*dC*dC*dT*dT*dG*dC*dT*dA*dA*dA*dA*dC*dC*dC*dA*dG) [AS-II-1197-20]
Reduced relative colony forming efficiency, MDA-MB-231 (% inhibition of colony forming ability) [1]: 50.35%
Reduced relative colony forming efficiency, T-47D (% inhibition of colony forming ability) [2]: 81.95%
Reduced relative colony forming efficiency, T24 (% inhibition of colony forming ability) [3]: 90.3%
Reduced relative colony forming efficiency, HepG2 (% inhibition of colony forming ability) [4]: 76.32%
Reduced relative colony forming efficiency, PC-3 (% inhibition of colony forming ability) [5]: 74.4%
Reduced relative colony forming efficiency, MIA PaCa-2 (% inhibition of colony forming ability) [6]: 70.68%
Reduced relative colony forming efficiency, A549 (% inhibition of colony forming ability) (A549 lung cell carcinoma): 89.15%
Reduced relative colony forming efficiency, HCT116 (% inhibition of colony forming ability) [7]: 84.85%
Reduced relative colony forming efficiency, Hela S3 (% inhibition of colony forming ability) (Hela S3 cells): 82.68%

CCCCTTCAGCGGCG (antisense dC*dC*dC*dC*dT*dT*dC*dA*dG*dC*dG*dG*dC*dG) [AS-II-253-14]
Reduced relative colony forming efficiency, T-47D (% inhibition of colony forming ability) [2]: 27.09%
Reduced relative colony forming efficiency, T24 (% inhibition of colony forming ability) [3]: 19.41%
Reduced relative colony forming efficiency, HepG2 (% inhibition of colony forming ability) [4]: 42%
Reduced relative colony forming efficiency, PC-3 (% inhibition of colony forming ability) [5]: 67.26%
Reduced relative colony forming efficiency, A549 (% inhibition of colony forming ability) (A549 lung cell carcinoma): 61.62%
Reduced relative colony forming efficiency, HCT116 (% inhibition of colony forming ability) [7]: 53.28%
Reduced relative colony forming efficiency, 11596 (% inhibition of colony forming ability) [8]: 0.81%
Reduced relative colony forming efficiency, Hela S3 (% inhibition of colony forming ability) (Hela S3 cells): 65.18%

AAAAATCAGCCAAGTAAGGG (antisense dA*dA*dA*dA*dA*dT*dC*dA*dG*dC*dC*dA*dA*dG*dT*dA*dA*dG*dG*dG) [AS-II-1381-20]
Reduced relative colony forming efficiency, MDA-MB-231 (% inhibition of colony forming ability) [1]: 44.41%
Reduced relative colony forming efficiency, T-47D (% inhibition of colony forming ability) [2]: 93.62%
Reduced relative colony forming efficiency, T24 (% inhibition of colony forming ability) [3]: 71.37%
Reduced relative colony forming efficiency, HepG2 (% inhibition of colony forming ability) [4]: 62.34%
Reduced relative colony forming efficiency, PC-3 (% inhibition of colony forming ability) [5]: 75%
Reduced relative colony forming efficiency, MIA PaCa-2 (% inhibition of colony forming ability) [6]: 73.77%
Reduced relative colony forming efficiency, A549 (% inhibition of colony forming ability) (A549 lung cell carcinoma): 86.02%
Reduced relative colony forming efficiency, HCT116 (% inhibition of colony forming ability) [7]: 89.48%
Reduced relative colony forming efficiency, Hela S3 (% inhibition of colony forming ability) (Hela S3 cells): 80.53%

GGGAGAGCATAGTGGAGGCG (antisense dG*dG*dG*dA*dG*dA*dG*dC*dA*dT*dA*dG*dT*dG*dG*dA*dG*dG*dC*dG) [AS-II-185-20]
Reduced relative colony forming efficiency, MDA-MB-231 (% inhibition of colony forming ability) [1]: 17.4%
Reduced relative colony forming efficiency, T-47D (% inhibition of colony forming ability) [2]: 94.52%
Reduced relative colony forming efficiency, T24 (% inhibition of colony forming ability) [3]: 21.94%
Reduced relative colony forming efficiency, HepG2 (% inhibition of colony forming ability) [4]: 53.44%
Reduced relative colony forming efficiency, PC-3 (% inhibition of colony forming ability) [5]: 4.37%
Reduced relative colony forming efficiency, MIA PaCa-2 (% inhibition of colony forming ability) [6]: 29.32%
Reduced relative colony forming efficiency, A549 (% inhibition of colony forming ability) (A549 lung cell carcinoma): 71.51%
Reduced relative colony forming efficiency, 11596 (% inhibition of colony forming ability) [8]: 24.53%
Reduced relative colony forming efficiency, Hela S3 (% inhibition of colony forming ability) (Hela S3 cells): 19.38%
